Patent US20040122081A1, “Pharmaceutical compositions and methods of using taxane derivatives” (priority 2002, published 2004)
Converted amounts (≈) assume the structure as drawn. “And” between values parts separate entries of the source, which are not always exact repeats. Equal values may be shown once. Read-outs that look alike come from different tables or passages of the source.

Key:
Type in all cases: physicochemical
[1] = Dilution of drug solution with aqueous diluents; settings: 15 mg/mL drug solution (75% ethanol/10 mM tartrate buffer, apparent pH 5.4) diluted with 0.9% sodium chloride injection or 5% dextrose injection
[2] = Intrinsic aqueous solubility; settings: water
Description: Therefore, it was necessary to formulate the compound in such a way to get the desired solubility at a physiological pH and maintain stability prior to administration.

[3] = Stability of solution in presence of POE castor oil at 50° C.; settings: for Potency / Total Impurities: solution containing dehydrated alcohol and POE castor oil
Description: As shown below, the stability of the solution containing POE castor oil was much lower than the injection solution without the co-solvent.

[4] = Equilibrium solubility in diluted drug product (mixed two-vial formulation); settings: 7.5% ethanol, 4% POE castor oil in tartrate buffer; for solubility thermodynamic at 16 h: 24 °C
Procedure: A study was also undertaken to determine the equilibrium solubility of Compound Ia in the mixture obtained by mixing the contents of the two vial formulation. Ten milliliters of the mixed solution was transferred into four 10 cc Type I flint glass vials. To each of these aliquots, approximately 25 mg of drug substance was added. A different lot of drug substance was added to each vial. Vials were closed with West Teflon-faced stoppers, sealed with aluminum seals and stirred for 16 hours at room temperature, protected from light. Samples were filtered through 0.45 micron hydrophilic PVDF membranes and analyzed by HPLC for drug concentration. Solubility results are listed below in Table VI. […] Samples were prepared and stirred at 24±3° C. for about 5 hours and placed in a 5±3° C. storage chamber for about 17 hours. Upon removal from the storage chamber, samples were immediately filtered and analyzed by HPLC for drug concentration.

[5] = Solubility of compound in a co-solvent:water mixture; settings: aqueous with cosolvent or surfactant or cyclodextrin, thermodynamic from solid, stirred over 16 hours
Procedure: Approximately 25 mg of drug substance was added to 2 mL aqueous solution of ethanol (33%, 50% and 75% v/v). An additional 10 mg of drug substance was added to the 75% sample as all drug appeared to dissolve. A similar study was performed by adding approximately 25 mg drug substance to 2 mL aqueous solution of tertiary butyl alcohol (33%, 50% and 66% v/v). Samples were stirred for over 16 hours, filtered through 0.45μ nylon syringe filters, diluted and analyzed by HPLC for drug concentration. The results shown in Table I indicate that among the conditions evaluated, 75% v/v dehydrated alcohol in water for injection provided the highest solubility. Based on the results of these studies, a formulation of 15 mg/mL drug substance in 75% v/v ethanol:water was selected for further studies.

[6] = Solubility in aqueous dehydrated alcohol / POE castor oil solutions; settings: aqueous dehydrated alcohol/POE castor oil solution, 24 °C, aqueous with cosolvent or surfactant or cyclodextrin, thermodynamic from solid, stirred 16 hours, read-out: Drug Solubility
Procedure: However, this solution cannot be injected directly into patients as the non-aqueous components exceed 20%, thus potentially causing irritation at the injection site. […] It has been shown that the precipitation can be avoided by inclusion of a co-solvent such as polyoxyethylated (POE) castor oil in the formulation. Subsequently, solubility of the drug substance was determined in solutions containing various amounts of dehydrated alcohol and POE castor oil. Approximately 20 mg of drug was added to 3 mL aliquots of the solutions shown below in Table III. Samples were stirred for 16 hours, filtered trough 0.45 micron nylon syringe filters and analyzed by HPLC for drug concentration.

[7] = Solubility in prototype formulation (75% v/v dehydrated alcohol, 10 mM tartrate buffer, apparent pH 5.4); settings: aqueous with cosolvent or surfactant or cyclodextrin, thermodynamic from solid
Procedure: Solubility of four lots of drug substance was evaluated in the prototype formulation developed; 75% v/v dehydrated alcohol, 10 mM tartrate buffer resulting in an apparent pH of 5.4. 15 mg/mL of drug substance were used. 5 mL aliquots of the solution were dispensed into glass vials and an additional (˜50 mg) of drug substance was added. The vials were closed, sealed and stirred for 16 hours at room temperature. Samples were filtered and analyzed by HPLC for drug concentration.

[8] = Effect of pH on drug substance stability in ethanol:buffer solutions; settings: for % Compound Remaining / Total Impurity Index: 1 mg/mL in 75% v/v ethanol:0.01M tartrate, 18 days 50° C.
Procedure: The effect of pH on the drug substance stability was also studied. The buffer pH providing maximum stability was determined by comparing the stability of prototype formulations of the drug substance. […] Relative area percents of drug peaks were evaluated following 2 days storage at 85° C. […] Subsequent experiments evaluated stability (1 mg drug/mL) in 75% v/v ethanol:0.01M tartrate buffers. Three mL aliquots of samples were dispensed into 5 cc Type I glass vials and closed with West 4405/50 20 mm stoppers. Percent drug substance remaining, and impurities were evaluated following 18 days storage at 50° C. and compared to initial values.

[9] = Buffer pH 2.6, apparent pH 3.88
[10] = Buffer pH 3.0, apparent pH 4.67
[11] = Buffer pH 3.5, apparent pH 5.15
[12] = Buffer pH 3.6, apparent pH 5.20
[13] = Buffer pH 3.8, apparent pH 5.39
[14] = Buffer pH 4.0, apparent pH 5.69
[15] = Buffer pH 4.0, apparent pH 5.81
[16] = Buffer pH 4.2, apparent pH 5.99
[17] = Buffer pH 4.4, apparent pH 6.24

CSCO[C@H]1C[C@H]2OC[C@@]2(OC(C)=O)[C@H]2[C@H](OC(=O)c3ccccc3)[C@]3(O)C[C@H](OC(=O)[C@H](O)[C@@H](NC(=O)c4ccccc4)c4ccccc4)C(C)=C([C@@H](OC(C)=O)C(=O)[C@]12C)C3(C)C [Compound Ia, 7-O-methylthiomethylpaclitaxel]
outcome of dilution with aqueous diluents [1]: drug precipitation | solubility [2]: < 0.1 µg/mL | Potency ([3]; 6 days @ 50° C.): 2000 µg/mL | Total Impurities ([3]; 6 days @ 50° C.): 10.9 | Potency ([3]; 16 days @ 50° C.): 1900 µg/mL | Total Impurities ([3]; 16 days @ 50° C.): 16.5 | Potency ([3]; Initial): 2200 µg/mL | Total Impurities ([3]; Initial): 2.1 | % potency remaining ([3]; injection solution (ethanol, pH 5.4 tartrate buffer) w/o POE castor oil, 28 days stored at 50° C.): 100% | % potency remaining ([3]; injection solution (ethanol, pH 5.4 tartrate buffer) with POE castor oil 4%, 16 days stored at 50° C.): 86% | solubility thermodynamic ([4]; 5 °C, aqueous with cosolvent or surfactant or cyclodextrin, thermodynamic from solid, 5 ± 3° C.): 2460 µg/mL (≈ 2690 µM) | solubility thermodynamic at 16 h ([4]; aqueous with cosolvent or surfactant or cyclodextrin, thermodynamic from solid, 24 ± 3° C., individual lots of drug substance, read-out: Equilibrium Solubility in Diluted Drug Product): 2580 µg/mL (≈ 2820 µM) | solubility thermodynamic at 16 h ([4]; aqueous with cosolvent or surfactant or cyclodextrin, thermodynamic from solid, Average @ 24 ± 3° C., four lots, read-out: Equilibrium Solubility in Diluted Drug Product, Average): ~2580 µg/mL (≈ 2820 µM) | Equilibrium Solubility in Diluted Drug Product ([4]; 24 ± 3° C., individual lots of drug substance): 2570 µg/mL and 2620 µg/mL and 2560 µg/mL | Equilibrium Solubility in Diluted Drug Product, Average ([4]; Average @ 24 ± 3° C., four lots): 2580 µg/mL | solubility ([5]; ethanol:water mixture, Dehydrated Alcohol, USP 33% v/v in water): 30 µg/mL (≈ 32.8 µM) | solubility ([5]; ethanol:water mixture, Dehydrated Alcohol, USP 50% v/v in water): 1640 µg/mL (≈ 1790 µM) | solubility ([5]; ethanol:water mixture, Dehydrated Alcohol, USP 75% v/v in water): > 17500 µg/mL | solubility ([5]; tertiary butyl alcohol:water mixture, Tertiary Butyl Alcohol 33% v/v in water): 190 µg/mL (≈ 208 µM) | solubility ([5]; tertiary butyl alcohol:water mixture, Tertiary Butyl Alcohol 50% v/v in water): 3130 µg/mL (≈ 3420 µM) | solubility ([5]; tertiary butyl alcohol:water mixture, Tertiary Butyl Alcohol 66% v/v in water): 13000 µg/mL (≈ 14200 µM) | solubility at 16 h ([6]; Aqueous vehicle: Dehydrated Alcohol 3.75% v/v, POE Castor Oil 2% v/v): 960 µg/mL (≈ 1050 µM) | solubility at 16 h ([6]; Aqueous vehicle: Dehydrated Alcohol 7.50% v/v, POE Castor Oil 4% v/v): > 1500 µg/mL | solubility at 16 h ([6]; Aqueous vehicle: Dehydrated Alcohol 9.375% v/v, POE Castor Oil 5% v/v): 2910 µg/mL (≈ 3180 µM) | solubility thermodynamic ([7]; 5 °C, 5±3° C., read-out: equilibrium solubility): 23000 µg/mL (≈ 25200 µM) | solubility at 16 h ([7]; 25 °C, room temperature, average of four lots): ~22000 µg/mL (≈ 24100 µM) | buffer pH at which the best stability was achieved ([8]; 0.2 mg drug/mL in 16.7% v/v ethanol:0.1M citrate buffers, 2 days storage at 85° C., HPLC relative area percent): 4.5 | apparent pH of the most stable solution ([8]; 1 mg drug/mL in 75% v/v ethanol:0.01M tartrate buffers, 18 days at 50° C., corresponds to tartrate buffer pH 3.8): 5.4 | % Compound Remaining [8, 9]: 94.4% | Total Impurity Index [8, 9]: 4.16 Area % | % Compound Remaining [8, 10]: 97.1% | Total Impurity Index [8, 10]: 2.51 Area % | % Compound Remaining [8, 11]: 97.1% | Total Impurity Index [8, 11]: 2.06 Area % | % Compound Remaining [8, 12]: 98.1% | Total Impurity Index [8, 12]: 1.36 Area % | % Compound Remaining [8, 13]: 101% | Total Impurity Index [8, 13]: 1.34 Area % | % Compound Remaining [8, 14]: 100% | Total Impurity Index [8, 14]: 1.62 Area % | % Compound Remaining [8, 15]: 98.1% | Total Impurity Index [8, 15]: 1.99 Area % | % Compound Remaining [8, 16]: 99% | Total Impurity Index [8, 16]: 1.67 Area % | % Compound Remaining [8, 17]: 100% | Total Impurity Index [8, 17]: 1.84 Area %
